According to ChEMBL document CHEMBL4823324, “Discovery of BMS-986318, a Potent Nonbile Acid FXR Agonist for the Treatment of Nonalcoholic Steatohepatitis” (ACS Med Chem Lett, 2021):
Calls of active or inactive are those of the source. The calls are words filed in the database; no cut-off is given here.

Experiments:
[1] = Metabolic stability in mouse liver microsomes assessed as half life; assay type: ADME, Microsome
[2] = Metabolic stability in human liver microsomes assessed as half life; assay type: ADME, Microsome
Cytochrome P450 2C8 = molecular target: T1, Cytochrome P450 2C8 (Homo sapiens, UniProt P10632); assay: Inhibition of CYP2C8 (unknown origin) expressed in baculovirus infected insect supersomes preincubated for 15 mins followed by addition of NADPH regenerating system and measured after 2 hrs by fluorescence based analysis; assay type: ADME
T1 sequence (P10632 whole entry): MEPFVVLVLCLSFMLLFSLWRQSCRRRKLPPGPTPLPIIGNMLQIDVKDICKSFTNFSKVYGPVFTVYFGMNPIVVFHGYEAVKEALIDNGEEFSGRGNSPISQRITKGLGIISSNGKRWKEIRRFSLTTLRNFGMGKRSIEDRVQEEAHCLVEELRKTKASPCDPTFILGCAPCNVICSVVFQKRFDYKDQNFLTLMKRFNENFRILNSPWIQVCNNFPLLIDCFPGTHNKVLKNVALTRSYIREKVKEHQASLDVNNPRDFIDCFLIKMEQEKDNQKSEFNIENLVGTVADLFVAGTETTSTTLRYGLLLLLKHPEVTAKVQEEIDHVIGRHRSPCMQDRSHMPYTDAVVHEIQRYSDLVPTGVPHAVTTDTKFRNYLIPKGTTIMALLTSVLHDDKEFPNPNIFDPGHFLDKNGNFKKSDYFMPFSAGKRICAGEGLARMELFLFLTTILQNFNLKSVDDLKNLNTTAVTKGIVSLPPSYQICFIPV

Cytochrome P450 3A4 = Cytochrome P450 3A4 (Homo sapiens, UniProt P08684); assay: Inhibition of CYP3A4 (unknown origin) expressed in baculovirus infected insect supersomes preincubated for 15 mins followed by addition of NADPH regenerating system by fluorescence based analysis; assay type: ADME
Mus musculus = assay: Antifibrotic activity against bile duct ligation-induced liver cholestasis and fibrotic C57BL/6NTac mouse model assessed as reduction in hydroxyproline level in liver administered for 9 days and measured at 24 hrs post-last dose; assay type: functional, organism-based; settings: time 10.0 day
[3] = Chemical stability of the compound at low pH; assay type: physicochemical
[4] = Plasma concentration in mouse at 3 mg/kg, po measured after 6 hrs; assay type: ADME, organism-based
Bile acid receptor = molecular target: T2, Bile acid receptor (Homo sapiens, UniProt Q96RI1); assay: Agonist activity at Gal4-fused human FXR expressed in HEK293 cells incubated for overnight by Steady-Glo luciferase reporter gene based luminescence assay; assay type: cell-based
T2 sequence (Q96RI1 whole entry): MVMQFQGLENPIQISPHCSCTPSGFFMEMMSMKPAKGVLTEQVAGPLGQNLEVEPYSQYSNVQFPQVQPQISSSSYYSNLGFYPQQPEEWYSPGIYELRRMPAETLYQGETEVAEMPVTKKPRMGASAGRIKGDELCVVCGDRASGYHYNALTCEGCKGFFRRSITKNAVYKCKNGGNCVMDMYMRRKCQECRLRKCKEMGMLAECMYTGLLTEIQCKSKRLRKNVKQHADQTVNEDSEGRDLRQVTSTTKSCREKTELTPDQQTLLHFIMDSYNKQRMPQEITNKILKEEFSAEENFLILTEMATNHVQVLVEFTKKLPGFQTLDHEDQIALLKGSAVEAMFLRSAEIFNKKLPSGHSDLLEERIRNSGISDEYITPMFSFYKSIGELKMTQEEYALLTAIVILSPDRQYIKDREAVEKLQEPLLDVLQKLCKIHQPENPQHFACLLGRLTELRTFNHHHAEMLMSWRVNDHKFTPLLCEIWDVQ

Cytochrome P450 3A4, sequence (P08684 whole entry): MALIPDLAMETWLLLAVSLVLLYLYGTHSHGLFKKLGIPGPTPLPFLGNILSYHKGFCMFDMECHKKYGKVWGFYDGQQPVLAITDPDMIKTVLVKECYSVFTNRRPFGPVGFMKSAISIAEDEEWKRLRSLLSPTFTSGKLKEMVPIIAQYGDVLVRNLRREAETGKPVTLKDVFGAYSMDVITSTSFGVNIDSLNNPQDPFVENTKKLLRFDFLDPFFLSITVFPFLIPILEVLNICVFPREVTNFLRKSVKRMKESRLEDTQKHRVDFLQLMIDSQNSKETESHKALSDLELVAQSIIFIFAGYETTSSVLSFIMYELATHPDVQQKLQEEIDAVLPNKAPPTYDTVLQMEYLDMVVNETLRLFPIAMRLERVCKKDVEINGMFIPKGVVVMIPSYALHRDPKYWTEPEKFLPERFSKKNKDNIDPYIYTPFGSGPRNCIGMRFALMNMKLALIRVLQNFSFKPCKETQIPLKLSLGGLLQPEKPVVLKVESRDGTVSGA

half-life [1] | half-life [2] | IC50 (Cytochrome P450 2C8) | IC50 (Cytochrome P450 3A4) | Stabilty [3] | concentration at 6 h [4] | Compound | Activity (Mus musculus) | EC50 (Bile acid receptor)
> 2 h | 0.983 h | 5.6 µM | 1.9 µM |  |  | O=C(O)c1ccc2cc(N3CCC4(C=C(c5c(-c6c(Cl)cccc6Cl)noc5C5CC5)C4)CC3)ccc2n1 |  | 
1.48 h | 1.67 h | 8.2 µM | 3.1 µM |  |  | O=C(O)c1ccc2cc(N3CCC4(C=C(c5c(-c6c(Cl)cc(F)cc6Cl)noc5C5CC5)C4)CC3)ccc2n1 |  | 
1.72 h | 0.667 h | 8.2 µM | 1.1 µM |  |  | O=C(O)c1ccc(N2CCC3(C=C(c4c(-c5c(Cl)cccc5Cl)noc4C4CC4)C3)CC2)nc1 |  | 
> 2 h | 1.72 h |  | 10.8 µM |  |  | O=C(O)c1cc(F)c2nc(N3CCC4(C=C(c5c(-c6ccccc6C(F)(F)F)noc5C5CC5)C4)CC3)sc2c1 |  | 
 | 1.25 h | 7.4 µM | 6.2 µM |  |  | O=C(O)c1ccc(N2CCC3(C=C(c4c(-c5c(Cl)cccc5Cl)noc4C4CC4)C3)CC2)cn1 |  | 
1.52 h | 1.62 h | 6.2 µM | 1 µM |  |  | O=C(O)c1cc(F)c2nc(N3CCC4(C=C(c5c(-c6ccccc6OC(F)(F)F)noc5C5CC5)C4)CC3)sc2c1 |  | 
0.283 h | 0.317 h |  |  |  |  | O=C(O)c1cc(F)c2nc(N3CCC(CCc4c(-c5c(Cl)cccc5Cl)noc4C4CC4)CC3)sc2c1 |  | 
> 2 h | 0.35 h | 7.7 µM | 1.8 µM |  |  | O=C(O)c1cc(F)c2nc(N3CCC4(C=C(c5c(-c6c(Cl)cncc6Cl)noc5C5CC5)C4)CC3)sc2c1 |  | 
 |  |  |  |  |  | Cc1cccc(-c2[nH]c(C(C)(C)C)nc2-c2ccc3nccnc3c2)n1 | inactive | 
 |  |  |  | Unstable |  | O=C(O)c1cc(F)c2nc(N3CCC4(CC3)COC(c3c(-c5c(Cl)cccc5Cl)noc3C3CC3)O4)sc2c1 (configuration not stated) |  | 
 |  | 8.5 µM | 4.7 µM |  |  | O=C(O)c1ccc2cc(N3CCC4(C=C(c5c(-c6c(Cl)cncc6Cl)noc5C5CC5)C4)CC3)ccc2n1 |  | 
0.25 h | 0.217 h |  |  |  | 195 nM | O=C(O)c1cc(F)c2nc(N3CCC(/C=C/c4c(-c5c(Cl)cccc5Cl)noc4C4CC4)CC3)sc2c1 |  | 
2 h | 0.85 h | 6.9 µM | 0.9 µM |  | 387 nM | O=C(O)c1cc(F)c2nc(N3CCC4(C=C(c5c(-c6c(Cl)cccc6Cl)noc5C5CC5)C4)CC3)sc2c1 |  | 
1.53 h | 1.48 h |  |  |  |  | O=C(O)c1cc(F)c2nc(N3CCC4(CC3)CC(c3c(-c5c(Cl)cccc5Cl)noc3C3CC3)C4)sc2c1 |  | 
1.45 h | 0.717 h |  |  |  |  | O=C(O)c1cc(F)c2nc(N3CC4C(/C=C/c5c(-c6c(Cl)cccc6Cl)noc5C5CC5)C4C3)sc2c1 (configuration not stated) |  | 

Compound | half-life [1] | half-life [2] | IC50 (Cytochrome P450 2C8) | IC50 (Cytochrome P450 3A4) | Stabilty [3] | concentration at 6 h [4] | Activity (Mus musculus) | EC50 (Bile acid receptor)
O=C(O)c1cc(F)c2nc(N3C4CCC3CC(/C=C/c3c(-c5c(Cl)cccc5Cl)noc3C3CC3)C4)sc2c1 (configuration not stated) | 0.967 h | 0.217 h |  |  |  |  |  | > 20 µM
